# Measured values: US20260060250A1, “HERBICIDAL PYRIDONE DERIVATIVES” (SYNGENTA CROP PROTECTION AG, priority 2022, published 2026)
# Legend:
# Format in all cases: in vivo
# Settings in all cases: 1000 g/ha, evaluated after 13 days
# Zea mays (ZEAMX) [1] = assay: Pre-emergence Test (Table B1); parameters: key: 5=81-100%; 4=61-80%; 3=41-60%; 2=21-40%; 1=0-20%; 0=inactive
# [2] = test system: Amaranthus retroflexus (AMARE); assay: Pre-emergence Test (Table B1)
# [3] = test system: Echinochloa crus-galli (ECHCG); assay: Post-emergence Test (Table B2); parameters: key: 5=81-100%; 4=61-80%; 3=41-60%; 2=21-40%; 1=0-20%; 0=inactive
# Experimental: (§1) Seeds of a variety of test species are sown in standard soil in pots (Amaranthus palmeri (AMAPA), Setaria faberi (SETFA), Echinochloa crus-galli (ECHCG), (Amaranthus retroflexus (AMARE), Zea mays (ZEAMX), Ipomoea hederacea (IPOHE)). After 8 days cultivation under controlled conditions in a glasshouse (at 24° C./16° C., day/night; 14 hours light; 65% humidity), the plants are sprayed with an aqueous spray solution derived from the formulation of the technical active ingredient in acetone/water (50:50) solution containing 0.5% Tween 20 (polyoxyethelyene sorbitan monolaurate, CAS RN 9005-64-5). Compounds are applied at 1000 g/ha unless otherwise stated. The test plants are then grown in a glasshouse under controlled conditions in a glasshouse (at 24° C./16° C., day/night; 14 hours light; 65% humidity) and watered twice daily. After 13 days the test is evaluated for the percentage damage caused to the plant.
# Zea mays (ZEAMX) [4] = assay: Post-emergence Test (Table B2); parameters: key: 5=81-100%; 4=61-80%; 3=41-60%; 2=21-40%; 1=0-20%; 0=inactive
# Experimental: as §1
# [5] = test system: Ipomoea hederacea (IPOHE); assay: Post-emergence Test (Table B2); parameters: key: 5=81-100%; 4=61-80%; 3=41-60%; 2=21-40%; 1=0-20%; 0=inactive
# Experimental: as §1
# Setaria faberi (SETFA) [6] = assay: Pre-emergence Test (Table B1); parameters: key: 5=81-100%; 4=61-80%; 3=41-60%; 2=21-40%; 1=0-20%; 0=inactive
# [7] = test system: Ipomoea hederacea (IPOHE); assay: Pre-emergence Test (Table B1); parameters: key: 5=81-100%; 4=61-80%; 3=41-60%; 2=21-40%; 1=0-20%; 0=inactive
# [8] = test system: Amaranthus palmeri (AMAPA); assay: Pre-emergence Test (Table B1)
# [9] = test system: Echinochloa crus-galli (ECHCG); assay: Pre-emergence Test (Table B1); parameters: key: 5=81-100%; 4=61-80%; 3=41-60%; 2=21-40%; 1=0-20%; 0=inactive
# [10] = test system: Amaranthus palmeri (AMAPA); assay: Post-emergence Test (Table B2)
# Experimental: as §1
# [11] = test system: Amaranthus retroflexus (AMARE); assay: Post-emergence Test (Table B2)
# Experimental: as §1
# Setaria faberi (SETFA) [12] = assay: Post-emergence Test (Table B2)
# Experimental: as §1
Structure (SMILES),"percentage damage caused to the plant, ZEAMX (Zea mays (ZEAMX) [1])","percentage damage caused to the plant, AMARE [2]","percentage damage caused to the plant, ECHCG [3]","percentage damage caused to the plant, ZEAMX (Zea mays (ZEAMX) [4])","percentage damage caused to the plant, IPOHE [5]","percentage damage caused to the plant, SETFA (Setaria faberi (SETFA) [6])","percentage damage caused to the plant, IPOHE [7]","percentage damage caused to the plant, AMAPA [8]","percentage damage caused to the plant, ECHCG [9]","percentage damage caused to the plant, AMAPA [10]","percentage damage caused to the plant, AMARE [11]","percentage damage caused to the plant, SETFA (Setaria faberi (SETFA) [12])"
"CCn1c(C)c(-c2cc(C(=O)OC(C)CF)ccc2F)c(=O)c(C(=O)O)c1-c1ccc(Cl)c(Cl)c1 (stereo not drawn) [Compound 9, 2-(3,4-dichlorophenyl)-1-ethyl-5-[2-fluoro-5-(2-fluoro-1-methyl-ethoxy)carbonyl-phenyl]-6-methyl-4-oxo-pyridine-3-carboxylic acid]",1 (1=0-20%),5 (5=81-100%),2 (2=21-40%),2 (2=21-40%),1 (1=0-20%),2 (2=21-40%),0,5 (5=81-100%),1 (1=0-20%),4 (4=61-80%),5 (5=81-100%),3 (3=41-60%)
"CCn1c(C)c(-c2cc(C(=O)OC(C)C(C)=O)ccc2F)c(=O)c(C(=O)O)c1-c1ccc(Cl)c(Cl)c1 (stereo not drawn) [Compound 10, 2-(3,4-dichlorophenyl)-1-ethyl-5-[2-fluoro-5-(1-methyl-2-oxo-propoxy)carbonyl-phenyl]-6-methyl-4-oxo-pyridine-3-carboxylic acid]",0,5 (5=81-100%),2 (2=21-40%),3 (3=41-60%),1 (1=0-20%),0,0,5 (5=81-100%),0,5 (5=81-100%),5 (5=81-100%),4 (4=61-80%)
"CCC#CC(C)OC(=O)c1ccc(F)c(-c2c(C)n(CC)c(-c3ccc(Cl)c(Cl)c3)c(C(=O)O)c2=O)c1 (stereo not drawn) [Compound 11, 2-(3,4-dichlorophenyl)-1-ethyl-5-[2-fluoro-5-(1-methylpent-2-ynoxycarbonyl)phenyl]-6-methyl-4-oxo-pyridine-3-carboxylic acid]",0,5 (5=81-100%),4 (4=61-80%),2 (2=21-40%),3 (3=41-60%),0,0,5 (5=81-100%),0,5 (5=81-100%),5 (5=81-100%),4 (4=61-80%)
"C#CC(C)OC(=O)c1ccc(F)c(-c2c(C)n(CC)c(-c3ccc(Cl)c(Cl)c3)c(C(=O)O)c2=O)c1 (stereo not drawn) [Compound 12, 2-(3,4-dichlorophenyl)-1-ethyl-5-[2-fluoro-5-(1-methylprop-2-ynoxycarbonyl)phenyl]-6-methyl-4-oxo-pyridine-3-carboxylic acid]",1 (1=0-20%),5 (5=81-100%),4 (4=61-80%),3 (3=41-60%),2 (2=21-40%),4 (4=61-80%),1 (1=0-20%),4 (4=61-80%),3 (3=41-60%),5 (5=81-100%),5 (5=81-100%),5 (5=81-100%)
"C=CCC(C)OC(=O)c1ccc(F)c(-c2c(C)n(CC)c(-c3ccc(Cl)c(Cl)c3)c(C(=O)O)c2=O)c1 (stereo not drawn) [Compound 13, 2-(3,4-dichlorophenyl)-1-ethyl-5-[2-fluoro-5-(1-methylbut-3-enoxycarbonyl)phenyl]-6-methyl-4-oxo-pyridine-3-carboxylic acid]",0,4 (4=61-80%),1 (1=0-20%),2 (2=21-40%),2 (2=21-40%),2 (2=21-40%),0,4 (4=61-80%),1 (1=0-20%),4 (4=61-80%),4 (4=61-80%),2 (2=21-40%)
"CCOCC(C)OC(=O)c1ccc(F)c(-c2c(C)n(CC)c(-c3ccc(Cl)c(Cl)c3)c(C(=O)O)c2=O)c1 (stereo not drawn) [Compound 14, 2-(3,4-dichlorophenyl)-5-[5-(2-ethoxy-1-methyl-ethoxy)carbonyl-2-fluoro-phenyl]-1-ethyl-6-methyl-4-oxo-pyridine-3-carboxylic acid]",0,5 (5=81-100%),3 (3=41-60%),1 (1=0-20%),0,3 (3=41-60%),0,5 (5=81-100%),0,5 (5=81-100%),5 (5=81-100%),3 (3=41-60%)
"CC#CC(C)OC(=O)c1ccc(F)c(-c2c(C)n(CC)c(-c3ccc(Cl)c(Cl)c3)c(C(=O)O)c2=O)c1 (stereo not drawn) [Compound 15, 2-(3,4-dichlorophenyl)-1-ethyl-5-[2-fluoro-5-(1-methylbut-2-ynoxycarbonyl)phenyl]-6-methyl-4-oxo-pyridine-3-carboxylic acid]",0,5 (5=81-100%),5 (5=81-100%),4 (4=61-80%),2 (2=21-40%),0,0,5 (5=81-100%),0,5 (5=81-100%),5 (5=81-100%),5 (5=81-100%)
"C#CC(C)OC(=O)c1cc(-c2c(C)n(CC)c(-c3ccc(Cl)c(Cl)c3)c(C(=O)O)c2=O)c(F)cc1Cl (stereo not drawn) [Compound 20, 5-[4-chloro-2-fluoro-5-(1-methylprop-2-ynoxycarbonyl)phenyl]-2-(3,4-dichlorophenyl)-1-ethyl-6-methyl-4-oxo-pyridine-3-carboxylic acid]",0,5 (5=81-100%),5 (5=81-100%),4 (4=61-80%),4 (4=61-80%),3 (3=41-60%),0,5 (5=81-100%),3 (3=41-60%),5 (5=81-100%),5 (5=81-100%),5 (5=81-100%)
